{"source": "patent US20070037751A1", "about": "“Uses of secretagogues like ghrelin in cancer cachexia and for stimulating appetite” (priority 2003, published 2007)", "key": {"[1]": {"assay": "Plasma ghrelin after subcutaneous bolus injection of ghrelin in mice (Example 6)", "assay_type": "in vivo", "description": "6+6 mice received 12 or 24 nmol of ghrelin by a subcutaneous bolus injection in the neck (corresponding to 400 and 800 nmol kg^−1, respectively). […] Immunoactive ghrelin was measured in 20 μl plasma with a radioimmunoassay (RIA) that uses an antiserum raised against acylated human ghrelin (Phoenix Pharmaceuticals); ^125I-labelled ghrelin-28 was used as a tracer a rat ghrelin-28 as standard. […] Plasma concentrations were expressed as pmol equivalents of rat ghrelin-28 per liter. Active (octanoylated) ghrelin was determined in 50 μl plasma using an enzyme linked immunosorbent assay (ELISA) kit (LINCO Research, St. Charles, Mo., USA)."}, "[2]": {"conditions": "infusion for 90 minutes, cancer cachexia patients; cited from earlier work"}, "[3]": {"conditions": "continuous intravenous infusion for 270 minutes, 5 pmol/kg/min; cited from earlier work"}, "[4]": {"system": "growth hormone", "assay": "Plasma growth hormone before and after subcutaneous ghrelin in a cancer cachexia patient (Example 4)", "assay_type": "in vivo, human", "conditions": "before and after the two subcutaneous injections, 0.8 to 1.5 micrograms/kg twice daily, one patient", "description": "(§1) The patient was treated with subcutaneous injections of 0.8 to 1.5 micrograms/kg ghrelin twice daily for 4 weeks. The injections were taken before meals.\nPharmacokinetic and pharmacodynamic assessment was performed at day 1 and 2 by blood sampling before and after each injection and measurement of plasma levels of growth hormone and active and total ghrelin."}, "[5]": {"assay": "Daily subcutaneous ghrelin for 8 weeks in gastrectomised and sham-operated mice (Example 7)", "assay_type": "in vivo", "description": "Mice were subjected to gastrectomy or to sham operation. Gastrectomy was carried out by resecting the glandular stomach (antrum and fundus), followed by anastomozing the duodenum and the rumen end-to-end. The mortality associated with gastrectomy was 10%. Some of the gastrectomised and sham-operated mice received a subcutaneous dose of ghrelin (12 nmol) daily for 8 weeks. Controls received saline. […] After 8 weeks the mice were killed by decapitation (16-18 h after the last injection). Blood was collected and plasma stored at −20° C. for measurement of ghrelin (see below). Lean tissue was analysed by dual energy x-ray absorptiometry (DXA) (PIXImus, Lunar Corporation, Madison, […]., USA). White adipose tissue (WAT) (mesenteric, retroperitoneal-renal, gonadal and inguinal) and intrascapular brown adipose tissue (BAT) was dissected out and weighed\nMeasurement of circulating ghrelin: If not otherwise stated, determination of circulating ghrelin was carried out on plasma from animals at sacrifice (end-point analysis). Immunoactive ghrelin was measured in 20 pi plasma with a radioimmunoassay (RIA) that uses an antiserum raised against acylated human ghrelin (Phoenix Pharmaceuticals); ^125I-labelled ghrelin-28 was used as a tracer a rat ghrelin-28 as standard. […] Plasma concentrations were expressed as pmol equivalents of rat ghrelin-28 per liter. Active (octanoylated) ghrelin was determined in 50 μl plasma using an enzyme linked immunosorbent assay (ELISA) kit (LINCO Research, St. Charles, Mo., USA).\nStatistical analysis: Values are expressed as means±S.E.M. Differences were analyzed by the student t-test or by one-way analysis of variance (ANOVA), using Bonferroni's multiple comparison test. A p value of less than 0.05 was considered statistically significant."}, "[6]": {"assay": "Pharmacokinetics of ghrelin formulations after subcutaneous administration in rats (Examples 9 and 10)", "assay_type": "in vivo, Sprague Dawley rats", "design": "Tmax: dose or concentration left out as unconfirmed", "conditions": "rat", "description": "Two different types of liposomes were made containing dipalmitoyl DL-α-phosphatidylcholine (DPPC ) and a mixture of phosphatidylcholin and cholesterol (PC/Chol), respectively. The liposomes were prepared by dissolving and mixing the lipids in chloroform. Chloroform was removed overnight by rotation evaporation, and the resulting lipid film was first striped with ethanol (99,9%) and then left overnight in the rotation evaporator. The multilamellar liposomes were formed by hydration in HEPES-buffer (10 mM HEPES, 50 mM KCl, 1mM NaN3, pH=5,5) for at least 1 h. The hydration temperature was 51° C. (10° C. above the Tm of the phospholipids). Subsequently, the liposomes were sonicated for 30 sec every 10 min during one hour using a tip sonicator. One hundred nanometer unilamellar liposomes were made from the multilamellar liposomes by extrusion through 100 nm polycarbonate filters. Size measurements were performed by dynamic light scattering (DLS) using a Zetasizer 4 (Malvern, UK). Tm were determined by Differential Scanning Caleometry (DSC; MicroCal™ Incorporated). Ghrelin were added approximately 2 h before the administration of the formulation to the animals in doses of 60 μg per 500 μL\nIntralipid 30% were purchased from the local Pharmacy on the Danish University Hospital Copenhagen (Rigshospitalet). 1000 mL contain: purified soybean oil 300 g, purified egg phospholipids 12 g, glycerol anhydrous 16.7 g, water for injection q.s. ad 1 000 mL. pH is adjusted with sodium hyroxide to pH approximately 7.5.\nAnimals: Thirty (30) male Sprague Dawley rats (aged 6-7 weeks; approximately 300 g; Charles River, Germany) were used. Upon arrival at the animal facility, they were housed 3 per cage for one week, and subsequently transferred to individual cages with access to food and water ad libitum.\nAfter one week of singly housing, the rats were ready for experiments and were randomized into 5 weight-matched groups (6 pr. group):\nAll compounds were administered by subcutaneous administration (0.5 ml/300g rat)\nOn the experimental day (0800-0930), 15 minute prior to receiving the test dose, a 200 μl blood sample was drawn from the tail vein. At time point 0 a second blood sample was drawn and immediately after rats received an sc injection with test compound according to the groups listed above. Seven more samples were drawn (volume 200 μl) at time points: 15, 30, 45, 60, 90, 120 and 240 minutes post injection according to study outline. The total blood volume drawn was 1800 μl (approx. 10% of total blood volume).\nBlood samples were kept on ice until plasma separation could be performed. After centrifugation (4000 rpm for 10 minutes) plasma was transferred to vials/tubes containing 5 μL 1N HCl og 5 μL 2mg/mL solution of Phenylmethylsulfonyl fluoride in isopropanol.\nThe active (acylated) ghrelin in the plasma samples was measured by use of a RIA assay (Linco Research, Inc) according to the manufactures protocol."}, "[7]": {"assay": "Clinical follow-up of a cancer cachexia patient treated with ghrelin (Example 4)", "assay_type": "in vivo, human", "description": "as §1\nThe patient was followed weekly by standard laboratory tests, Cachexia/anorexia and quality of life questionnaires, body-weight, body-composition analysis (DEXA-scan) and chest-x-ray or thorax-CT among others."}, "[8]": {"assay": "Clinical follow-up of a cancer cachexia patient treated with ghrelin (Example 4)", "assay_type": "in vivo, human", "conditions": "weekly IV injections, before the subcutaneous treatment"}, "[9]": {"conditions": "gastrectomised mice, 12 nmol sc daily, 8 weeks"}, "[10]": {"conditions": "ghrelin (200 mg/kg) in a buffer"}, "[11]": {"conditions": "subcutaneous 0.8 to 1.5 micrograms/kg twice daily for 4 weeks, one patient"}}, "note": "“Also recorded” adds a separate entry of the source.", "data": [{"smiles": "CCCCCCCC(=O)OC[C@H](NC(=O)[C@H](CO)NC(=O)CN)C(=O)N[C@@H](Cc1ccccc1)C(=O)N[C@@H](CC(C)C)C(=O)N[C@@H](CO)C(=O)N1CCC[C@H]1C(=O)N[C@@H](CCC(=O)O)C(=O)N[C@@H](Cc1cnc[nH]1)C(=O)N[C@@H](CCC(N)=O)C(=O)N[C@@H](CCCNC(=N)N)C(=O)N[C@H](C(=O)N[C@@H](CCC(N)=O)C(=O)N[C@@H](CCC(N)=O)C(=O)N[C@@H](CCCNC(=N)N)C(=O)N[C@@H](CCCCN)C(=O)N[C@@H](CCC(=O)O)C(=O)N[C@@H](CO)C(=O)N[C@@H](CCCCN)C(=O)N[C@@H](CCCCN)C(=O)N1CCC[C@H]1C(=O)N1CCC[C@H]1C(=O)N[C@@H](C)C(=O)N[C@@H](CCCCN)C(=O)N[C@@H](CC(C)C)C(=O)N[C@@H](CCC(N)=O)C(=O)N1CCC[C@H]1C(=O)N[C@@H](CCCNC(=N)N)C(=O)O)C(C)C", "note": "[ghrelin]", "values": [{"measurement": "plasma ghrelin 6 h after injection", "setting": "[1]; 12 nmol sc, 6 h", "result": "still elevated"}, {"measurement": "plasma concentration of active (octanoylated) ghrelin 6 h after injection", "setting": "[1]; 12 nmol sc, 6 h, n=4", "result": "remained high"}, {"measurement": "plasma concentration of active (octanoylated) ghrelin (ELISA)", "setting": "[1]; 12 nmol sc, n=4", "result": "greatly elevated"}, {"measurement": "plasma ghrelin concentration (RIA, octanoylated and des-octanoylated)", "setting": "[1]; 12 and 24 nmol sc, n=6 in each group", "result": "raised"}, {"measurement": "increase of food intake", "setting": "[2]", "result": 30, "unit": "%"}, {"measurement": "food intake", "setting": "[3]", "result": "increase in food intake"}, {"measurement": "increase in plasma growth hormone levels", "setting": "[4]", "result": "more than 5 fold"}, {"measurement": "plasma ghrelin concentration 16-18 h after injection", "setting": "[5]; 12 nmol sc daily for 8 weeks, 16-18 h after the last injection", "result": "elevated"}, {"measurement": "amount of fat (fat depots)", "setting": "[5]; [9]", "result": "normalized the fat depots"}, {"measurement": "amount of lean tissue (lean body mass, DXA)", "setting": "[5]; [9]", "result": "reversed the effect; also recorded: normalized"}, {"measurement": "body weight raised", "setting": "[5]; [9]", "result": 8, "unit": "%"}, {"measurement": "lean body mass, ghrelin versus saline", "setting": "[5]; sham-operated mice, 12 nmol sc daily, 8 weeks", "result": "no difference"}, {"measurement": "decrease of plasma concentration in the 15 min after the maximum (time point 30 min)", "setting": "[6]; [10]", "result": "approximately 30%"}, {"measurement": "further decrease of plasma concentration in the following 15 min (time point 45)", "setting": "[6]; [10]", "result": "~60", "unit": "%"}, {"measurement": "increase in active ghrelin in plasma", "setting": "[6]; [10]", "result": "approximately 10 fold"}, {"measurement": "plasma level of active ghrelin after 120 min", "setting": "[6]; [10]", "result": "slightly increased"}, {"measurement": "plasma level of active ghrelin after 240 min", "setting": "[6]; [10]", "result": "back to basal level"}, {"measurement": "Tmax", "setting": "[6]; male, Sprague Dawley, plasma, sc, ghrelin in a buffer, read-out: time of maximal plasma concentration of ghrelin (converted)", "result": 15, "unit": "min"}, {"measurement": "tumor progression (CT-scans)", "setting": "[7]; mesothelioma, during the subcutaneous ghrelin treatment, 4 weeks", "result": "did not progress"}, {"measurement": "body weight and body composition", "setting": "[7]; subcutaneous 0.8 to 1.5 micrograms/kg twice daily before meals for 4 weeks, one patient", "result": "stable body weight and body composition"}, {"measurement": "ability to eat meals", "setting": "[7]; [11]", "result": "able to eat full plates of meals and finish these; also recorded: increased objective hunger and ability to eat meals"}, {"measurement": "hunger", "setting": "[7]; [11]", "result": "did not feel more intensified hunger; also recorded: increased objective hunger"}, {"measurement": "adverse effects", "setting": "[7]; subcutaneous treatment, 4 weeks", "result": "no significant adverse effects"}, {"measurement": "lab values", "setting": "[7]; subcutaneous treatment, weekly standard laboratory tests", "result": "did not show a substantial difference"}, {"measurement": "response to ghrelin treatment", "setting": "[8]", "result": "responded well"}]}]}
